Laboratory results reported in US7291627B2, “Dihydroimidazo[5.1-a]-beta-carboline derivatives, method for their preparation, and their application as a drug” (MACEF, priority 2001, dated 2007).

Tested on: JA 657 chicks
Experiment: Chick sleep/sedation test (IM injection, 90 minute observation)
Format: in vivo
Details: for Sed (sedation time as % of the period) / TA (time to torpor between injection and first stage of sleep) / TS (duration of the first sleep) / Tsed (total sedation time over the period): 90 min observation; for TS (mins) Placebo diff'ce: extension of first sleep compared with test controls
Protocol: The dihydroimidazo[5,1-a]-β-carboline derivatives of the invention, in particular those in the form of the methyl sulfonate, (soluble), were tested in chicks, and certain compounds that were active in the chick were administered in single doses to six Beagle dogs of both sexes for a polysomnographic study of at least 4 hours duration.
JA 657 chicks from Couvoir Gauguet, 44 Le Pin, were accustomed for at least 6 days to an alternating program of light and darkness with 12 hours of daylight and 12 hours of darkness at a regulated temperature of 25±2° C. They were fed ad libitum and were placed under test compounds in a vivarium in groups of 3 individuals with a mean weight of 100±10 g on the day of the test. At that age in this species, there is no effective meningeal (hemato-encephalic) barrier. The test products were injected in 3 doses (1, 3 and 10 mg/kg) intramuscularly (IM) in solution or in an aqueous suspension (1 drop of Tween 80 per ml), each to two batches of 3 chicks which were observed over 90 minutes. For each test series (18 vivaria), there was at least one batch of negative control chicks receiving the same volume (0.2 ml IM) of water for injectable preparations.
During the 90 minute observation period, the chicks were strongly stimulated every 15 minutes by presenting a full feeding trough, and each 5 minute period was given a grade from among the following 5 states, corresponding to the state of alertness over that period:
Mobile, sitting alert, drowsy, asleep, sleep-like state. The parameters studied were the time to torpor (TA) passed between injection and the first stage of sleep, the duration of the first sleep (TS) and the total sedation time over the period (Tsed), expressed in minutes and as a % of the period (Sed).
To compare the results of tests carried out at different dates, the extension of the duration of the first sleep TS compared with the test controls was recorded.

Row | SMILES | Sed (sedation time as % of the period) (Dose: 1 mg/kg) | TA (time to torpor between injection and first stage of sleep) (Dose: 1 mg/kg) | TS (duration of the first sleep) (Dose: 1 mg/kg) | Tsed (total sedation time over the period) (Dose: 1 mg/kg) | TS (mins) Placebo diff'ce (Dose: 1 mg/kg) | Sed (sedation time as % of the period) (Dose: 3 mg/kg) | TA (time to torpor between injection and first stage of sleep) (Dose: 3 mg/kg) | TS (duration of the first sleep) (Dose: 3 mg/kg) | Tsed (total sedation time over the period) (Dose: 3 mg/kg) | TS (mins) Placebo diff'ce (Dose: 3 mg/kg) | Sed (sedation time as % of the period) (Dose: 10 mg/kg) | TA (time to torpor between injection and first stage of sleep) (Dose: 10 mg/kg) | TS (duration of the first sleep) (Dose: 10 mg/kg) | Tsed (total sedation time over the period) (Dose: 10 mg/kg) | TS (mins) Placebo diff'ce (Dose: 10 mg/kg)
1 | COc1ccc2[nH]c3c(c2c1)CCn1cncc1-3 [Example 3, 8-methoxy-5,6-dihydroimidazo[5,1-a]-β-carboline] | 73.9% | 10 min | 40 min | 66.51 min | 36 min | 78.9% | 7 min | 66.5 min | 71.0 min | 62.5 min | 86.7% | 6.5 min | 77.5 min | 78.0 min | 73.5 min
2 | COc1ccc2[nH]c3c(c2c1)CCn1c(C)nc(-c2ccccc2)c1-3 [Example 4, 8-methoxy-3-methyl-1-phenyl-5,6-dihydro-imidazo[5,1-a]-β-carboline] | 58.9% | 16.5 min | 38 min | 53.01 min | 34 min | 72.8% | 14 min | 22.5 min | 65.5 min | 18.5 min | 90.6% | 8.5 min | 81.5 min | 81.5 min | 76.5 min
3 | CCc1nc(C)n2c1-c1[nH]c3ccc(OC)cc3c1CC2 [Example 5, 1-ethyl-8-methoxy-3-methyl-5,6-dihydro-imidazo[5,1-a]-β-carboline] | 58.3% | 20.5 min | 33 min | 52.47 min | 29 min | 76.7% | 14.5 min | 53 min | 69.0 min | 49 min | 62.8% | 13.5 min | 40.5 min | 56.5 min | 36.5 min
4 | COc1ccc2[nH]c3c(c2c1)CCn1c-3cnc1C(C)C [Example 6, 8-methoxy-3-isopropyl-5,6-dihydroimidazo-[5,1-a]-β-carboline] | 73.3% | 11 min | 56.5 min | 65.97 min | 52.5 min | 80.6% | 12.5 min | 72.5 min | 72.5 min | 68.5 min | 82.2% | 12.5 min | 72.5 min | 74.0 min | 68.5 min
5 | CCCc1ncc2n1CCc1c-2[nH]c2ccc(OC)cc12 [Example 7, 8-methoxy-3-propyl-5,6-dihydroimidazo[5,1-a]-β-carboline] | 41.4% | 16.5 min | 16 min | 46 min | 16 min | 41% | 16.5 min | 27 min | 45.5 min | 27 min | 48.2% | 12.5 min | 38.5 min | 53.5 min | 38.5 min
6 | CCCc1ncc2n1CCc1c-2n(C)c2ccc(OC)cc12.CS(=O)(=O)O [Example 8, 8-methoxy-11-methyl-3-propyl-5,6-dihydro-imidazo[5,1-a]-β-carboline methane sulfonate] | 42.2% | 16 min | 21.5 min | 38 min | 21 min | 60% | 8.5 min | 33 min | 54 min | 32.7 min | 76.1% | 5.5 min | 41 min | 68.5 min | 40.7 min
7 | COc1ccc2c(c1)c1c(n2C)-c2cnc(C)n2CC1.CS(=O)(=O)O [Example 9, 8-methoxy-3,11-dimethyl-5,6-dihydroimidazo-[5,1-a]-β-carboline methane sulfonate] | 27.2% | 22 min | 3 min | 24.5 min | 2.8 min | 29.4% | 17.5 min | 13.5 min | 26.5 min | 13 min | 42.8% | 16.5 min | 15.5 min | 38.5 min | 15 min
8 | CS(=O)(=O)O.Cc1ncc2n1CCc1c-2n(C)c2ccc(O)cc12 [Example 10, 8-hydroxy-3,11-dimethyl-5,6-dihydroimidazo-[5,1-a]-β-carboline methane sulfonate] | 42.2% | 15 min | 5 min | 38 min | 4.7 min | 12.2% | 30 min | 1 min | 11 min | 0.7 min | 30% | 11.5 min | 12.5 min | 27 min | 12 min
9 | CS(=O)(=O)O.Cc1ncc2n1CCc1c-2[nH]c2ccc(O)cc12 [Example 11, 8-hydroxy-3-methyl-5,6-dihydroimidazo[5,1-a]-β-carboline methane sulfonate] | 29.4% | 40 min | 0 min | 26.5 min | -0.3 min | 38.3% | 15 min | 7 min | 34.5 min | 6.7 min | 20.6% | 6 min | 9.5 min | 18.5 min | 9 min
10 | CS(=O)(=O)O.Cc1ncc2n1CCc1c-2[nH]c2ccccc12 [Example 12, 3-methyl-5,6-dihydroimidazo[5,1-a]-β-carboline methane sulfonate] | 51.7% | 10 min | 39.5 min | 46.5 min | 39 min | 63.9% | 3.5 min | 42 min | 57.5 min | 41.7 min | 98.9% | 1 min | 89 min | 89 min | 88.7 min
